Activity calls are given as the source filed them.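 How the source made its calls: active means maximal inhibition of USP17 at or above 30% in the confirmation dose-response, a value not among the printed readouts; inactive means the rest.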

A word on the IC50: it is the concentration that inhibits the measured activity by half.

The target of the experiment is Ubiquitin carboxyl-terminal hydrolase 17-like protein 5 (Homo sapiens) (UniProt A8MUK1). As to the kind of experiment: ubiquitin-specific protease 17 inhibitors, concentration series, biochemical, verification of primary actives (AID 1645864). The conditions noted are these: purified USP17, ubiquitin-rhodamine cleavage fluorescence, 3 h.
Chain of Ubiquitin carboxyl-terminal hydrolase 17-like protein 5 (Homo sapiens) (A8MUK1 whole entry, looked up): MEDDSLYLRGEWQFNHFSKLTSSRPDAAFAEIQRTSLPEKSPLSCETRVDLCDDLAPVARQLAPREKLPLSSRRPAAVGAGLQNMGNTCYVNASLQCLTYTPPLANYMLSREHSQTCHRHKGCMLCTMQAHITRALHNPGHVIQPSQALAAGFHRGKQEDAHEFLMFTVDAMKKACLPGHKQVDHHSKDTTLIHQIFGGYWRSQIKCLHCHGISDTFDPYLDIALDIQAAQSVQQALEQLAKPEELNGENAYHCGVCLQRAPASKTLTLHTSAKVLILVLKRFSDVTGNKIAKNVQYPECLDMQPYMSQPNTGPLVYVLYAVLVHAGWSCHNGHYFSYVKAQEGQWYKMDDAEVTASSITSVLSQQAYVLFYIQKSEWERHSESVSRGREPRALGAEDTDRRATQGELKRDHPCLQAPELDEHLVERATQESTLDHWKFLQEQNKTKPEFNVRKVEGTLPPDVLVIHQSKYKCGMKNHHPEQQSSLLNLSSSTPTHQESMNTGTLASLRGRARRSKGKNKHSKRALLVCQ
As to `CNC(=O)CC1NC(=O)c2csc(n2)-c2ccc(-c3nc(C4=NC(C(=O)N5CCCC5C(N)=O)CO4)cs3)nc2-c2csc(n2)-c2csc(n2)C(C(O)c2ccccc2)NC(=O)CNC(=O)c2nc(sc2COC)C(C(C)C)NC(=O)c2nc1sc2C` (stereo unspecified), the half-maximal inhibitory concentration (IC50) is 29.6 µM.
To `Cc1cccc(C(=O)OCC(=O)Nc2ccc3[nH]c(=O)[nH]c3c2)c1C` belongs 4.32 µM; to `Nc1c(-c2ccc(Cl)cc2)cnc2nc(Sc3ncc(C(F)(F)F)cc3Cl)nn12`, > 50 µM (inactive); to `CCCC[C@@H](C)/C=C(C)/C=C(\C)C(=O)NC1=C[C@](O)(/C=C/C=C/C=C/C(=O)NC2=C(O)CCC2=O)[C@@H]2O[C@@H]2C1=O`, 3.1 µM.
Turning to `CC1CCN(S(=O)(=O)c2ccc3[nH]cc(C(=O)NCc4ccco4)c(=O)c3c2)CC1`, the IC50 was > 50 µM (inactive).
The value for `CC(C)NC(=O)CN1C(=O)CC(C)Sc2ccc(S(=O)(=O)N3CCCCC3)cc21` (stereo unspecified) was 25.2 µM; that for `COc1ccc(NC(=O)CC(=O)c2ccc([N+](=O)[O-])cc2)cc1S(=O)(=O)Nc1ccc(Br)cc1` was 22 µM.
As for `COc1ccc(-c2[nH]c3ccccc3c2SCCNC(=O)c2ccc(S(=O)(=O)N3CCOCC3)cc2)cc1`, the IC50 is 37.4 µM.
The value for `O=C1Nc2ccccc2C(=O)C1C(c1ccc(Cl)cc1)C1C(=O)Nc2ccccc2C1=O` (stereo unspecified) was 35.6 µM; that for `O=C(NCCn1ccc2ccccc21)c1cc2ccccc2oc1=O` was 29.8 µM.
Take `Cc1cc2c(cc1C)NC(CC(=O)Nc1ccc(O)cc1)C(=O)N2` (stereo unspecified): the IC50 is 24.1 µM.
Take `COc1ccc(NC(=O)c2nc3n(n2)-c2ccccc2S(=O)(=O)N3)cn1`: the IC50 was > 50 µM (inactive).
The value for `Cc1cc(O)c2c3c(c(O)cc2c1)C(=O)c1c(O)cccc1C3=O` was 0.407 µM.
Take `COc1ccc(C(=O)Nc2ccc(S(=O)(=O)N3CCCCC3)cc2)cc1`: the IC50 is > 50 µM (inactive).
As to `CCC(C)c1ccc(O[C@@H]2O[C@@H]3COC(c4ccccc4)O[C@H]3[C@H](O)[C@H]2NC(C)=O)cc1` (stereo partly specified), the IC50 is 16.6 µM.
To `Cc1cc(C)cc(NC(=O)CN2C(=O)CC(c3ccccc3)Sc3ccccc32)c1` (stereo unspecified) belongs > 50 µM (inactive); to `Cn1c(CCN2CCCC2)nc2cc(NC(=O)c3ccccc3)ccc21`, > 50 µM (inactive); to `O=C1C/C(=C\c2cccc(Cl)c2)Cc2ccccc21`, > 50 µM (inactive).
Consider `COc1ccc(CC(=O)Nc2cccc(-c3nc4ncccc4o3)c2)cc1OC`, for which the IC50 was > 50 µM (inactive).
The value for `COc1ccc(-c2cc3nc([C@H](C)NC(=O)Cc4cccc(F)c4)nn3cn2)cc1` was 3.75 µM; that for `CCn1ccc2c(cc(C(=O)Nc3ccccc3F)n2C)c1=O` was > 50 µM (inactive); that for `Cc1ccc2cc(CCNC(=O)c3cccc(Br)c3)c(=O)[nH]c2c1` was 38.9 µM.
Turning to `COc1ccc(-n2nnc(C(=O)Nc3ccccc3)c2N)cc1`, the IC50 is 26.8 µM.
The value for `CCC1(C)Cc2c(sc3nc(SCC(=O)Nc4ccc(C(C)=O)cc4)nc(N)c23)CO1` (stereo unspecified) was 34.9 µM.
On to `CC(C(=O)NCc1ccc2c(c1)OCO2)N1CCN(c2ccc(O)cc2)CC1` (stereo unspecified), for which the IC50 is 30.1 µM.
Turning to `O=C(c1ccc2ncccc2c1)N1CCC2(C1)Nc1cccnc1NC2=NC1CCCC1` (stereo unspecified), the IC50 was > 50 µM (inactive).
As to `CCc1nc2c(NC(=O)Nc3cccc(C(=O)OC)c3)cccn2n1`, the IC50 was > 50 µM (inactive).
For the compound `O=c1c(NCCCN2CCCC2)nc2ccncc2n1Cc1ccccc1`, the IC50 is 29.3 µM.
In the case of `CNC(=O)C1CN(C(=O)c2ccc(OC)cc2)CC12CCCC2` (stereo unspecified), the IC50 was > 50 µM (inactive).
The value for `O=C(Nc1cccc(F)c1)C1CCCN(S(=O)(=O)N2CCCCCC2)C1` (stereo unspecified) was 39.9 µM; that for `COc1ccc(C(=O)CSc2nnc(-c3cc4cccc(OC)c4o3)n2C)cc1OC` was > 50 µM (inactive); that for `O=C(CC1Oc2ccccc2NC1=O)Nc1ccccc1Br` (stereo unspecified) was 33.4 µM.
Take `Cc1ccc(Cn2nnc(C(=O)NCc3ccco3)c2-n2cccc2)cc1`: the IC50 is 42.4 µM.
As to `COc1cc(-c2nc(C(N)=O)c3[nH]c(=O)n(-c4ccc(C)cc4)c3n2)cc(OC)c1OC`, the IC50 is 1.96 µM.
Consider `COc1ccc(C(=O)Nc2n[nH]c(C)c2-c2cccc(C)c2)c(OC)c1`, for which the IC50 is 2.74 µM.
Take `O=C(CSc1ccc2nnc(-c3ccccc3)n2n1)N1CCCc2ccccc21`: the IC50 was 13.1 µM.
In the case of `COc1ccc(/C=C\c2nccc3c2[nH]c2ccccc23)cc1`, the IC50 was > 50 µM (inactive).
`Cc1ccccc1NC(=O)Cn1c(N2CCOCC2)nc2cc(C)n(C)c2c1=O`: the IC50 was 25.8 µM.
To `Cc1cc(-c2nnc(SCC(=O)Nc3ccc(Br)c(C)c3)n2N)n[nH]1` belongs 18.7 µM; to `CCCCCCCc1cc(O)cc(OC(=O)c2c(CCCCCCC)cc(O)cc2O[C@H]2O[C@H](C(O)CO)[C@@H](O)[C@@H]2O)c1` (stereo partly specified), 34.1 µM; to `Cc1ccc(CSC2=NS(=O)(=O)c3ccccc3N2)cc1`, > 50 µM (inactive).
Regarding `CC1CS(=O)(=O)N(c2ccc(C(=O)Nc3ccc4c(c3)OCCO4)cc2)C1=O` (stereo unspecified), the IC50 was 35.6 µM.
With `CC(C)(C)c1ccc(C(=O)Nc2ccc(Oc3cccnc3)nc2)cc1`, the IC50 was > 50 µM (inactive).
With `Cc1cccc(C(=O)N2CCc3cc(-c4nc(NC(=O)CNc5ccccc5)sc4C)ccc32)c1`, the IC50 was > 50 µM (inactive).
As to `Cc1ccc(C)c(S(=O)(=O)N2CCC3(CC2)NC(=O)c2ccccc2N3)c1`, the IC50 was 46.1 µM.
As to `Cc1nn(-c2ccc(Cl)cc2)c2[nH]c(=O)c(CNCC3CCCO3)cc12` (stereo unspecified), the IC50 was > 50 µM (inactive).
With `CS(=O)(=O)c1ccc(NC(=O)C2CN(c3nc4c(F)cccc4s3)C2)cc1`, the IC50 was 36.2 µM.
For the compound `O=C(NCc1ccc2c(c1)OCO2)c1nn(C23CC4CC(CC(C4)C2)C3)cc1[N+](=O)[O-]`, the IC50 was > 50 µM (inactive).
As to `O=C(Nc1cc(F)c2nc(N3CCOCC3)ccc2c1)C1CC1`, the IC50 was 7.47 µM.
As to `CC(=O)Nc1ccc(S(=O)(=O)NCc2ccc(C(=O)NCc3ccc(C)cc3)cc2)cc1`, the IC50 was 27.9 µM.
On to `COc1ccc(NC(=O)C2C3C=CC4(O3)C2C(=O)N(CCc2ccccc2)C4C(=O)NC2CCCCC2)cc1` (stereo unspecified), for which the IC50 was 26.2 µM.
Regarding `Cc1ccc2c(=O)c3c([nH]c2c1C)CCN(CC(=O)NCc1ccccc1)C3`, the IC50 is > 50 µM (inactive).
`CCOc1ccc(-c2ccc3nnc(SCC(=O)Nc4cccc(C(C)=O)c4)n3n2)cc1`: the IC50 is 4.26 µM.
Regarding `CC1=C(c2ccc(F)cc2)S(=O)(=O)NC1=NCC(=O)Nc1ccc(F)cc1`, the IC50 is 40.6 µM.
To `CCN(CC(=O)Nc1cc(C)on1)c1cccc2ccccc12` belongs > 50 µM (inactive); to `Cc1ccc(NC(=O)c2sc(=S)n(CCc3ccccc3)c2N)cc1`, 2.42 µM.
Turning to `CCC[C@H]1O[C@@H]2CC(=O)O[C@@H]2C2=C1C(=O)c1c(O)cccc1C2=O`, the IC50 was 1.08 µM.
On to `CCOC(=O)c1cc2c(ccn2C)n1CC(=O)N1CCC(C)CC1`, for which the IC50 was > 50 µM (inactive).
For the compound `O=C(Oc1ccc(-c2cnc3ccccc3n2)cc1)c1ccc(F)cc1`, the IC50 is 6.4 µM.
Turning to `COc1ccc(OC)c(NC(=O)CS(=O)(=O)c2cn(CC(=O)N3CCC(C)CC3)c3ccccc23)c1`, the IC50 was 27.2 µM.
To `Cc1ccc(O)c(-c2cc(C(=O)Nc3ccccc3Cl)[nH]n2)c1` belongs 8.32 µM; to `FC(F)(F)c1cccc(N2CCN(c3nc4ccccc4n4nnnc34)CC2)c1`, > 50 µM (inactive); to `O=C(Nc1ccc(-c2nnc3n2CCCCC3)cc1)c1ccc2c(c1)OCO2`, > 50 µM (inactive).
`CCCC(=O)Nc1ccc(SCc2nnc(-c3ccccc3)o2)cc1`: the IC50 was > 50 µM (inactive).
Consider `Cc1ccccc1NC(=O)C(C)n1c(=O)cc(-c2ccccc2)c2c(C)nn(C)c21` (stereo unspecified), for which the half-inhibitory concentration (IC50) was 2.67 µM.
`Cn1ncc2c(=O)n(Cc3cccc(Cl)c3)cnc21`: the IC50 was > 50 µM (inactive).
For `CC(=O)Nc1ccc(S(=O)(=O)NCc2ccc(C(=O)NCCc3ccc(Cl)cc3)cc2)cc1`, the IC50 was 2.31 µM.
`COc1ccc(CNC(=O)c2[nH]nc3c2CCc2ccccc2-3)cc1`: the IC50 is 35.5 µM.
As to `CCOc1ccc(NC(=O)CSc2nc3n[nH]c(C)c3c(=N)n2-c2ccc(OC)cc2)cc1`, the IC50 is > 50 µM (inactive).
Turning to `Cc1ccc(C(=O)N2CCCC3(C2)Nc2cccnc2NC3=NC2CCCC2)s1` (stereo unspecified), the IC50 was > 50 µM (inactive).
The value for `Cc1nc(N2CCCC2)ncc1C(=O)Nc1ccc(F)c(F)c1` was 32.3 µM; that for `Cc1ccc2c(C)nc(Nc3ncc4c(n3)CC(c3ccco3)CC4=O)nc2c1` (stereo unspecified) was below 0.05 µM; that for `CCOc1ccccc1C(=O)Oc1ccc2c(C)cc(=O)oc2c1` was 26.1 µM.
Turning to `CCc1ccc(NC(=O)Cc2nnc3cc(-c4nc(C)no4)ccn23)cc1`, the IC50 was 20.2 µM.
The value for `COc1ccccc1CNC(=O)CCCn1c(=O)c2ccccc2n(CC(=O)N2CCN(c3ccccc3)CC2)c1=O` was 29.2 µM.
With `Cc1cccc(S(=O)(=O)N2CCc3nc4ccccc4n3CC2)c1`, the IC50 was 24.4 µM.
Consider `CCn1cnc2ccc(C(=O)NC3CC3)cc2c1=O`, for which the IC50 was > 50 µM (inactive).
Take `O=C(COc1nsnc1N1CCOCC1)Nc1ccccc1F`: the IC50 is > 50 µM (inactive).
To `C/C1=C/CC(O)/C=C/C(C)C(O)C(C)/C=C(\C)C(=O)c2c(O)c(C)cc3c2C(=O)C(Cl)=C(NC(=O)\C=C/C=C/C=C\C(C)C(O)CC1=O)C3=O` (stereo unspecified) belongs 20.2 µM; to `CN1C(=O)COc2cc(-c3noc(C(=O)NC4CCCCCC4)n3)ccc21`, 39.3 µM; to `CCOc1ccccc1NC(=O)Cn1c(=O)n(CCCC(=O)NCc2ccc(C)cc2)c(=O)c2sccc21`, 2.71 µM.
As for `CC(C)N(C(=O)Cn1c(=O)[nH]c2ccccc21)c1ccccc1`, the IC50 is > 50 µM (inactive).
For `Cc1ccc(-c2cn(CC(=O)N3CCN(c4ccccn4)CC3)c(=O)o2)cc1`, the IC50 is 13 µM.
The value for `N#Cc1ccccc1Cn1c(=O)n(Cc2ccco2)c(=O)c2ccccc21` was 36.6 µM; that for `COC(=O)c1ccc(Cn2cnc3ccc(Br)cc3c2=O)o1` was > 50 µM (inactive); that for `CCc1ccc(-n2c(=O)c3ccccc3n(CC(=O)NCCC3=CCCCC3)c2=O)cc1` was 17.9 µM.

Source of the values: PubChem BioAssay AID1645864 (Buhrlage Lab, Dana-Farber Cancer Institute and Novartis …, 2021).
